According to article PMC7265341, “Quantifying CDK inhibitor selectivity in live cells” (Nature Communications, 2020):
Where two headings read alike, the source gives them in different places.

Key:
[1] = target: CDK1/Cyclin E1 (Homo sapiens, UniProt P06493); assay: NanoBRET live-cell target engagement, CDK1-NanoLuc/Cyclin E1 in HEK-293; format: binding; details: CDK1/E1, read-out: Inhibition at 10µM (%)
[2] = target: CDK2/Cyclin E1 (Homo sapiens, UniProt P24941); assay: NanoBRET live-cell target engagement, CDK2-NanoLuc/Cyclin E1 in HEK-293; format: binding; details: read-out: Inhibition at 10µM (%), CDK2/E1
[3] = target: CDK4/Cyclin D1 (Homo sapiens, UniProt P11802); assay: NanoBRET live-cell target engagement, NanoLuc-CDK4/Cyclin D1 in HEK-293; format: binding; details: CDK4/D1; for IC50: read-out: IC50; for inhibition at 10 µM: read-out: Inhibition at 10µM (%)
[4] = target: CDK5/CDK5R1 (Homo sapiens, UniProt Q00535); assay: NanoBRET live-cell target engagement, CDK5-NanoLuc/CDK5R1 in HEK-293; format: binding; details: CDK5/CDK5R1, read-out: Inhibition at 10µM (%)
[5] = target: CDK6/Cyclin D1 (Homo sapiens, UniProt Q00534); assay: NanoBRET live-cell target engagement, NanoLuc-CDK6/Cyclin D1 in HEK-293; format: binding; details: CDK6/D1; for IC50: read-out: IC50; for inhibition at 10 µM: read-out: Inhibition at 10µM (%)
Chain of CDK6/Cyclin D1 (Q00534 whole entry): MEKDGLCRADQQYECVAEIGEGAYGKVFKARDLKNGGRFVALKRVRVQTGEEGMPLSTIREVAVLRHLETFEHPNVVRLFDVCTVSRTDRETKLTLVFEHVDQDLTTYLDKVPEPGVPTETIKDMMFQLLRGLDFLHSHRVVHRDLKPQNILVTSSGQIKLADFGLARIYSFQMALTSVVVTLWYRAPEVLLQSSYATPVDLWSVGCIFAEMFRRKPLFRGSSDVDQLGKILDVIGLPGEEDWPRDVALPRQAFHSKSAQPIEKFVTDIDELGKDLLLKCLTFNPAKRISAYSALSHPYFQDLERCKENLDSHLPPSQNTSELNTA
Chain of CDK6/Cyclin D1 (P24385 whole entry partner): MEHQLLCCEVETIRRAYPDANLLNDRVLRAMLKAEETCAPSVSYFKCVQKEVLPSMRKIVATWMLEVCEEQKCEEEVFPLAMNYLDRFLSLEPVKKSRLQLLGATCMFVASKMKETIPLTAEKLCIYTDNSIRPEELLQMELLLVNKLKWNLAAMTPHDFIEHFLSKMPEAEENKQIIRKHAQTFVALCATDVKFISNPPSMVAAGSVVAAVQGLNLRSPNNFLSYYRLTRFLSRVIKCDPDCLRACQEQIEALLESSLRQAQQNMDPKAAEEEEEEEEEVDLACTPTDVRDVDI

[6] = target: CDK8/Cyclin C (Homo sapiens, UniProt P49336); assay: NanoBRET live-cell target engagement, NanoLuc-CDK8/Cyclin C in HEK-293; format: binding; details: CDK8/C, read-out: Inhibition at 10µM (%)
Chain of CDK8/Cyclin C (P49336 whole entry): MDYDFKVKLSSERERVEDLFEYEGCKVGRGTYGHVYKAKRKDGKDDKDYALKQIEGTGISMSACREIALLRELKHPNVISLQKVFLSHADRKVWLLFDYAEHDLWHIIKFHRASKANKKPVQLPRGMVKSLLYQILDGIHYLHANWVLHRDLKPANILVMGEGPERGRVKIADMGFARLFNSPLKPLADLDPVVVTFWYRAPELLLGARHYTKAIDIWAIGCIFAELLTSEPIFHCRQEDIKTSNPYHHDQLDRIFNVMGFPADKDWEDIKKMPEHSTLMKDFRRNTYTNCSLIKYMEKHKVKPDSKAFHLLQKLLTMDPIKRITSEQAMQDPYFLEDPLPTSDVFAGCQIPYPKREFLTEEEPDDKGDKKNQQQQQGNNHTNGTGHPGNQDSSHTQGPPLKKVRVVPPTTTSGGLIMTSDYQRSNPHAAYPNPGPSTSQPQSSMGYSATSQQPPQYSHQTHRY
Chain of CDK8/Cyclin C (P24863 whole entry partner): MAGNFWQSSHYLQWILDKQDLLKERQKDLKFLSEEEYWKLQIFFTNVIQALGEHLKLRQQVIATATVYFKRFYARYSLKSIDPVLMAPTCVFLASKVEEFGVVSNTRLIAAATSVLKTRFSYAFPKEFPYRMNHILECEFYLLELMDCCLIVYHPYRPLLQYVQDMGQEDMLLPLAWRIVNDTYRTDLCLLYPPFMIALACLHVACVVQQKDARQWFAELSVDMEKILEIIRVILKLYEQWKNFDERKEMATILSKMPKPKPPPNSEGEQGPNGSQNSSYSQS

[7] = target: CDK9/Cyclin K (Homo sapiens, UniProt P50750); assay: NanoBRET live-cell target engagement, NanoLuc-CDK9/Cyclin K in HEK-293; format: binding; details: CDK9/K, read-out: Inhibition at 10µM (%)
Chain of CDK9/Cyclin K (P50750 whole entry): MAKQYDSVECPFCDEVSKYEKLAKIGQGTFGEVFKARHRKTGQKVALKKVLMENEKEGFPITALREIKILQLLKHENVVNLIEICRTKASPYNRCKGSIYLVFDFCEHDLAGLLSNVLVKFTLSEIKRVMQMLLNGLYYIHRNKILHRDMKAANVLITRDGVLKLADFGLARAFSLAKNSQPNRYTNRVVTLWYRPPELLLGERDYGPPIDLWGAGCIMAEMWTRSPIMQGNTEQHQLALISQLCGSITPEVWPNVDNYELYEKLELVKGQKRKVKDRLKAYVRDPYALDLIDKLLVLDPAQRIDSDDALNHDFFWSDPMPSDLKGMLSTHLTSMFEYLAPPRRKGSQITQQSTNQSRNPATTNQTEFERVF
Chain of CDK9/Cyclin K (O75909 whole entry partner): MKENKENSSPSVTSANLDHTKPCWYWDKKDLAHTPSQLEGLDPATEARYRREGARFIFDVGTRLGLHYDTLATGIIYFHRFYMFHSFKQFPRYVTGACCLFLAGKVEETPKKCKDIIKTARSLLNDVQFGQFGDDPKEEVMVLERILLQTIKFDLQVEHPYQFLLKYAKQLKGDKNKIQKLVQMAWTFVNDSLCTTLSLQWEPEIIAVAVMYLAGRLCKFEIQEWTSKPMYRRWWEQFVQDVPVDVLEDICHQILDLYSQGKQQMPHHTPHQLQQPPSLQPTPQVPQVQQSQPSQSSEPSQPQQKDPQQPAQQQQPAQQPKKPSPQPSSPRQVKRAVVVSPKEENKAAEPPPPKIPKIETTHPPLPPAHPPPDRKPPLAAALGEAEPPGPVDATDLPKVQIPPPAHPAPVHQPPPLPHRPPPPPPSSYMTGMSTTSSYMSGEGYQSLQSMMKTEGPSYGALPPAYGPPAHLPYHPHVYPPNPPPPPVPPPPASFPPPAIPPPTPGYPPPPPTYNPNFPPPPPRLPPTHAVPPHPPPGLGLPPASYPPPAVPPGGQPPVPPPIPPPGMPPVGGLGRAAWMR

[8] = target: T1, CDK11A/Cyclin L2 (Homo sapiens, UniProt Q9UQ88); assay: NanoBRET live-cell target engagement, CDK11A-NanoLuc/Cyclin L2 in HEK-293; format: binding; details: CDK11a/L2, read-out: Inhibition at 10µM (%)
T1 sequence (Q9UQ88 1-783): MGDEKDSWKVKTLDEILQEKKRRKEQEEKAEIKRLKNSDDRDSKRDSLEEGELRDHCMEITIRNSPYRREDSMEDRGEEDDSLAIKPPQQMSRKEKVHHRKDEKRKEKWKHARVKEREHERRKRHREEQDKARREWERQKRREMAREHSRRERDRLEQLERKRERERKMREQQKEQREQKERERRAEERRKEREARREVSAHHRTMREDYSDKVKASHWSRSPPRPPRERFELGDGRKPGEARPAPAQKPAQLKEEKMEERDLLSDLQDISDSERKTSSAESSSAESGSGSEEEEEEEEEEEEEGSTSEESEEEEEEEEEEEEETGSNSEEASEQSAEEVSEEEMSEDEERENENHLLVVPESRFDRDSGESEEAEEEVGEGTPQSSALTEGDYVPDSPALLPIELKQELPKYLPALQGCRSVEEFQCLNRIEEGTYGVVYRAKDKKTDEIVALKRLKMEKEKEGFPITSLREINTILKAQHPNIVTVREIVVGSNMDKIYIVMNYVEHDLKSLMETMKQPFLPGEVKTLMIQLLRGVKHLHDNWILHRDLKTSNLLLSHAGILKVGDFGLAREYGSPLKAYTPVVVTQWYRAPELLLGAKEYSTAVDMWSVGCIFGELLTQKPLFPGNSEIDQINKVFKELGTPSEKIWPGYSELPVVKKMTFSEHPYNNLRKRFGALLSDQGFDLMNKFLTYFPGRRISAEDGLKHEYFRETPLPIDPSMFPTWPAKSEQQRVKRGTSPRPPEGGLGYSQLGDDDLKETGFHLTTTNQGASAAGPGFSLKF

[9] = target: CDK11B/Cyclin L2 (Homo sapiens, UniProt P21127); assay: NanoBRET live-cell target engagement, CDK11B-NanoLuc/Cyclin L2 in HEK-293; format: binding; details: CDK11b/L2, read-out: Inhibition at 10µM (%)
[10] = target: CDK12/Cyclin K (Homo sapiens, UniProt Q9NYV4); assay: NanoBRET live-cell target engagement, CDK12-NanoLuc/Cyclin K in HEK-293; format: binding; details: CDK12/K, read-out: Inhibition at 10µM (%)
[11] = target: CDK13/Cyclin K (Homo sapiens, UniProt Q14004); assay: NanoBRET live-cell target engagement, CDK13-NanoLuc/Cyclin K in HEK-293; format: binding; details: CDK13/K, read-out: Inhibition at 10µM (%)
[12] = target: CDK14/Cyclin Y (Homo sapiens, UniProt O94921); assay: NanoBRET live-cell target engagement, CDK14-NanoLuc/Cyclin Y in HEK-293; format: binding; details: CDK14/Y, read-out: Inhibition at 10µM (%)
Chain of CDK14/Cyclin Y (O94921 whole entry): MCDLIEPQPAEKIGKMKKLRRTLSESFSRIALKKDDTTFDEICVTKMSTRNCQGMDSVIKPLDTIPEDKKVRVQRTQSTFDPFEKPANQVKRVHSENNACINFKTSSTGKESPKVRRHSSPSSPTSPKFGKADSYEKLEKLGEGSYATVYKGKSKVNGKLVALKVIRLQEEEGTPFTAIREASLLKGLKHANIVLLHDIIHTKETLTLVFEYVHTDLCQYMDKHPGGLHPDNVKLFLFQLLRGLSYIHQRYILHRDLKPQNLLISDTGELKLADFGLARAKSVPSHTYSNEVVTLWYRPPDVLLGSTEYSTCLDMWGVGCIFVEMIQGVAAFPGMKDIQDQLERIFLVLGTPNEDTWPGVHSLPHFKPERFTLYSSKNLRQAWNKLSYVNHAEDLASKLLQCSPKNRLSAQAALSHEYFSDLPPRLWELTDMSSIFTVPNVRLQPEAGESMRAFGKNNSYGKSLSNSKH
Chain of CDK14/Cyclin Y (Q8ND76 whole entry partner): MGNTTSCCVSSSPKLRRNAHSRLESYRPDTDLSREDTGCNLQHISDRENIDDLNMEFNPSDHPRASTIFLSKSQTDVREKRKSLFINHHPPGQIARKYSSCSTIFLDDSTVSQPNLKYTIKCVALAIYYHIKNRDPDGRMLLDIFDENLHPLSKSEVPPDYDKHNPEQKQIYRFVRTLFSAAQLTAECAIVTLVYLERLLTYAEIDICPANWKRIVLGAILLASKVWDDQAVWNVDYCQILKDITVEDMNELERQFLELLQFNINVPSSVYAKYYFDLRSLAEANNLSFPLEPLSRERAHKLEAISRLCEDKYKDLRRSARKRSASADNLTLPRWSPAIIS

[13] = target: CDK15/Cyclin Y (Homo sapiens, UniProt Q96Q40); assay: NanoBRET live-cell target engagement, NanoLuc-CDK15/Cyclin Y in HEK-293; format: binding; details: CDK15/Y, read-out: Inhibition at 10µM (%)
[14] = target: CDK16/Cyclin Y (Homo sapiens, UniProt Q00536); assay: NanoBRET live-cell target engagement, CDK16-NanoLuc/Cyclin Y in HEK-293; format: binding; details: CDK16/Y; for IC50: read-out: IC50; for inhibition at 10 µM: read-out: Inhibition at 10µM (%)
[15] = target: CDK17/Cyclin Y (Homo sapiens, UniProt Q00537); assay: NanoBRET live-cell target engagement, CDK17-NanoLuc/Cyclin Y in HEK-293; format: binding; details: CDK17/Y, read-out: Inhibition at 10µM (%)
[16] = target: CDK18/Cyclin Y (Homo sapiens, UniProt Q07002); assay: NanoBRET live-cell target engagement, CDK18-NanoLuc/Cyclin Y in HEK-293; format: binding; details: CDK18/Y, read-out: Inhibition at 10µM (%)
Chain of CDK18/Cyclin Y (Q07002 whole entry): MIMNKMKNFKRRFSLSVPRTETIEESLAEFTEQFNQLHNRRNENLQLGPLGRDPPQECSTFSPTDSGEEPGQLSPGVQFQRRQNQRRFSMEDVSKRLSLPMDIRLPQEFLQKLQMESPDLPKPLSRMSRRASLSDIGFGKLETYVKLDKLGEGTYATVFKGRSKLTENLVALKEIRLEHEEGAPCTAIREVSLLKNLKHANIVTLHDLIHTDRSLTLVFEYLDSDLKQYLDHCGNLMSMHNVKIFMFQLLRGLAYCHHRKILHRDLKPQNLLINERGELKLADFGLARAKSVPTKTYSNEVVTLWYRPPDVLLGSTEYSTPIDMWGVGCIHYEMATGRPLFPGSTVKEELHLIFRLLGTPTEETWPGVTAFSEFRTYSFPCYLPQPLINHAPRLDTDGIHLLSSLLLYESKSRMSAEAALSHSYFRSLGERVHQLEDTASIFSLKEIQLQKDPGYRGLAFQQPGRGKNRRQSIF
Chain of CDK18/Cyclin Y (Q8ND76 whole entry partner): as the sequence (Q8ND76 whole entry partner) above

[17] = target: CDK20/Cyclin H (Homo sapiens, UniProt Q8IZL9); assay: NanoBRET live-cell target engagement, NanoLuc-CDK20/Cyclin H in HEK-293; format: binding; details: CDK20/H, read-out: Inhibition at 10µM (%)
[18] = target: CDK19/Cyclin C (Homo sapiens, UniProt Q9BWU1); assay: NanoBRET live-cell target engagement, NanoLuc-CDK19/Cyclin C in HEK-293; details: read-out: Inhibition at 10µM (%), CDK19/C
Chain of CDK19/Cyclin C (Q9BWU1 whole entry): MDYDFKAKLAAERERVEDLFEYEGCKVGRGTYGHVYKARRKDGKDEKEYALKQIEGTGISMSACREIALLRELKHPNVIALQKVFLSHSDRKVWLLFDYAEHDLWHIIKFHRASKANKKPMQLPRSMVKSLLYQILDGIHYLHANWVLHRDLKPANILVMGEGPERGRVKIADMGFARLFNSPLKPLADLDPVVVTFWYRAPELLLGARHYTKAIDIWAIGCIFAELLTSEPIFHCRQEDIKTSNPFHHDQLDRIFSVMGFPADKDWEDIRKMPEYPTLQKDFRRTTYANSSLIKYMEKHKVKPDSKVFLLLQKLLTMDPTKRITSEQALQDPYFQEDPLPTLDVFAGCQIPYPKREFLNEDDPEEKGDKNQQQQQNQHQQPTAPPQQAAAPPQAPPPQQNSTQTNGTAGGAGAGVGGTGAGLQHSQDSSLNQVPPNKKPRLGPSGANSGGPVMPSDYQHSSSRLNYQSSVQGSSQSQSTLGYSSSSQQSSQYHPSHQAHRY
Chain of CDK19/Cyclin C (P24863 whole entry partner): as the sequence (P24863 whole entry partner) above

[19] = target: CDK10/Cyclin L2 (Homo sapiens, UniProt Q15131); assay: NanoBRET live-cell target engagement, CDK10-NanoLuc/Cyclin L2 in HEK-293; details: read-out: Inhibition at 10µM (%), CDK10/L2

Chain of CDK1/Cyclin E1 (P06493 whole entry): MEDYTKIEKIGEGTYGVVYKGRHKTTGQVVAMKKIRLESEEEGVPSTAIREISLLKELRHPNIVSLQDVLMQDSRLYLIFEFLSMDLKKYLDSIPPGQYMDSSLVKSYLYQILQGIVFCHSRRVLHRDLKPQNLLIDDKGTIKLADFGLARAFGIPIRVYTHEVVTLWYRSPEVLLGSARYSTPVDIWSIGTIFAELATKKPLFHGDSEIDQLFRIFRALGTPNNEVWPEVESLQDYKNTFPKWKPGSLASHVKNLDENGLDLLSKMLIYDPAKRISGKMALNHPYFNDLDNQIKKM
Chain of CDK1/Cyclin E1 (P24864 whole entry partner): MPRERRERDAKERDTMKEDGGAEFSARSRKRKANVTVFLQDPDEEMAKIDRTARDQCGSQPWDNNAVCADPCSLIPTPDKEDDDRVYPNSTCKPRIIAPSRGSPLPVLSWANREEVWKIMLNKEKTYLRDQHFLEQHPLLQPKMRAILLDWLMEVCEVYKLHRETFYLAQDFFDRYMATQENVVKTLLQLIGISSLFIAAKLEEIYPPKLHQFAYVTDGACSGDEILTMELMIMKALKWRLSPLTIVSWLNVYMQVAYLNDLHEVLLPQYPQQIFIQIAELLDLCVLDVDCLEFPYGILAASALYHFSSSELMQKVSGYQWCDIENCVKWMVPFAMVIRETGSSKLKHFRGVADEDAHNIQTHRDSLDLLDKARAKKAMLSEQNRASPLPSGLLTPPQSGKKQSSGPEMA

inhibition at 10 µM ([1]; average): 20%
inhibition at 10 µM ([1]; experiment 1): 32.3%
inhibition at 10 µM ([1]; experiment 2): 7.8%
inhibition at 10 µM ([2]; average): 17.7%
inhibition at 10 µM ([2]; experiment 1): 12.1%
inhibition at 10 µM ([2]; experiment 2): 23.4%
IC50 ([3]; average (± SEM where n=3)): 650 nM
inhibition at 10 µM ([3]; average): 45.1%
IC50 ([3]; experiment 1): 561 nM
inhibition at 10 µM ([3]; experiment 1): 53.4%
IC50 ([3]; experiment 2): 746 nM
inhibition at 10 µM ([3]; experiment 2): 36.9%
inhibition at 10 µM ([4]; experiment 1): 7.6%
inhibition at 10 µM ([4]; experiment 2): 10%
IC50 ([5]; average (± SEM where n=3)): 320 nM
inhibition at 10 µM ([5]; average): 50.9%
IC50 ([5]; experiment 1): 318 nM
inhibition at 10 µM ([5]; experiment 1): 50.7%
IC50 ([5]; experiment 2): 314 nM
inhibition at 10 µM ([5]; experiment 2): 51.1%
inhibition at 10 µM ([6]; average): 2.5%
inhibition at 10 µM ([6]; experiment 1): 15.9%
inhibition at 10 µM ([6]; experiment 2): -10.8%
inhibition at 10 µM ([7]; average): 29.7%
inhibition at 10 µM ([7]; experiment 1): 29.8%
inhibition at 10 µM ([7]; experiment 2): 29.7%
inhibition at 10 µM ([8]; average): 26.4%
inhibition at 10 µM ([8]; experiment 1): 31.7%
inhibition at 10 µM ([8]; experiment 2): 21.1%
inhibition at 10 µM ([9]; average): 52.5%
inhibition at 10 µM ([9]; experiment 1): 32.8%
inhibition at 10 µM ([9]; experiment 2): 72.2%
inhibition at 10 µM ([10]; average): -8.8%
inhibition at 10 µM ([10]; experiment 1): 5.9%
inhibition at 10 µM ([10]; experiment 2): -23.5%
inhibition at 10 µM ([11]; average): 3.2%
inhibition at 10 µM ([11]; experiment 1): 4.9%
inhibition at 10 µM ([11]; experiment 2): 1.4%
inhibition at 10 µM ([12]; average): 16.5%
inhibition at 10 µM ([12]; experiment 1): 15.4%
inhibition at 10 µM ([12]; experiment 2): 17.7%
inhibition at 10 µM ([13]; average): 8.1%
inhibition at 10 µM ([13]; experiment 1): 12.2%
inhibition at 10 µM ([13]; experiment 2): 4%
IC50 ([14]; average (± SEM where n=3)): 450 nM
IC50 ([14]; experiment 1): 177 nM
inhibition at 10 µM ([14]; experiment 1): 31.8%
IC50 ([14]; experiment 2): 730 nM
inhibition at 10 µM ([14]; experiment 2): 64.3%
inhibition at 10 µM ([15]; average): 43.1%
inhibition at 10 µM ([15]; experiment 1): 26.9%
inhibition at 10 µM ([15]; experiment 2): 59.3%
inhibition at 10 µM ([16]; average): 18.4%
inhibition at 10 µM ([16]; experiment 1): 14.9%
inhibition at 10 µM ([16]; experiment 2): 21.8%
inhibition at 10 µM ([17]; experiment 1): 10.6%
inhibition at 10 µM ([17]; experiment 2): -4.4%
inhibition at 10 µM ([18]; average): 6.1%
inhibition at 10 µM ([18]; experiment 1): 10.6%
inhibition at 10 µM ([18]; experiment 2): 1.6%
inhibition at 10 µM ([19]; average): 16.4%
inhibition at 10 µM ([19]; experiment 1): 15.4%
inhibition at 10 µM ([19]; experiment 2): 17.3%
SMILES: N#CCNC(=O)c1ccc(-c2ccnc(Nc3ccc(N4CCOCC4)cc3)n2)cc1 [Momelotinib]
